Laboratory results published in patent publication US9670172B2, “Heterocyclic compounds and methods of use” (Medivation Technologies, Inc., priority 2014, dated 2017).
Like-named read-outs stand apart in the source and are kept apart here.

Columns and labels:
[1] = HepG2 cell viability by MTS; assay type: cell-based; conditions: human, HepG2 cells, 3 days, DMEM without FBS, MTS, read-out: Average Viability (% Inhibition, n = 3)
Description: For viability measurements, HepG2 cells were seeded at 5,000 cells per well in 96-well plates in DMEM supplemented with 10% FBS. After 1 day in culture, cells were treated with compounds (20 μM & 5 μM) for 3 days in DMEM without FBS. Viability was measured by MTS. Treatment with compounds (20 μM & 5 μM) was carried out in medium without FBS, and viability was measured by MTS. […]

[2] = PK parameters for representative compounds (i.v. and p.o.); conditions: in vivo; for half-life: read-out: Terminal t1/2 (converted)
From the text: Standard PK parameters were collected in Mouse and Dog for Compound #37 in mouse (FIG. 4A) and dog (FIG. 4B).

SREBP2 = SREBP2 cleavage in HEPG2 cells (Western blot normalized to actin); assay type: cell-based; conditions: Homo sapiens, HepG2 cells, read-out: Average SREBP2 cleavage (% Inhibition, n = 3); for inhibition at 20 µM: 24 h, 1 day, DMEM without FBS
Description: Average SREBP2 cleavage in HEPG2 cells was measured in the presence of compounds disclosed in Table 1. HepG2 cells were seeded at 500,000 cells per well in 6-well plates in DMEM supplemented with 10% FBS. After 2 days, cells were treated with compounds (20 μM) for 1 day in DMEM without FBS. Western blots were normalized with respect to actin.
The results are shown in Table 3 as percent inhibition@20 μM, and in Table 4 as percent inhibition@5 μM.

Work on `O=S(=O)(Nc1ccc(-c2csc(-c3ccnc(Cc4ccccc4)c3)n2)c(Cl)c1)C(F)(F)F` [Compound 60, N-{4-[2-(2-benzylpyridin-4-yl)-1,3-thiazol-4-yl]-3-chlorophenyl}-1,1,1-trifluoromethanesulfonamide] yielded a cytotoxicity at 3 days, 20 μM [1] of 100%, an AUC(0-t) ([2]; iv, i.v. @ 2 mg/kg) of 12.6 µM·h and a Cmax ([2]; iv, i.v. @ 2 mg/kg) of 3.38 µM. It also gave a Vd ([2]; iv, i.v. @ 2 mg/kg) of 1.28 L/kg, a clearance ([2]; iv, i.v. @ 2 mg/kg) of 4.8 mL/min/kg and a half-life ([2]; iv, i.v. @ 2 mg/kg) of 3.08 h. The AUC(0-t) ([2]; po, p.o. @ 10 mg/kg) was 57.1 µM·h, the Cmax ([2]; po, p.o. @ 10 mg/kg) was 6.58 µM and the Tmax ([2]; po, p.o. @ 10 mg/kg) was 4 h. It also gave a bioavailability ([2]; po, p.o. @ 10 mg/kg) of 90.2%, a half-life ([2]; po, p.o. @ 10 mg/kg) greater than 8 h and an inhibition at 20 µM (SREBP2) of 99%.

Molecule `O=S(=O)(Nc1ccc(-c2csc(-c3ccnc(N4CCCCC4)c3)n2)c(Cl)c1)C(F)(F)F` [Compound 85, N-(3-chloro-4-{2-[2-(piperidin-1-yl)pyridin-4-yl]-1,3-thiazol-4-yl}phenyl)-1,1,1-trifluoromethanesulfonamide] has a cytotoxicity at 3 days, 5 μM [1] of 93%, an AUC(0-t) ([2]; iv, i.v. @ 2 mg/kg) of 0.655 µM·h and a Cmax ([2]; iv, i.v. @ 2 mg/kg) of 0.241 µM. For the same molecule, the Vd ([2]; iv, i.v. @ 2 mg/kg) was 27.3 L/kg, the clearance ([2]; iv, i.v. @ 2 mg/kg) was 77.2 mL/min/kg and the half-life ([2]; iv, i.v. @ 2 mg/kg) was 4.08 h. For the same molecule, the AUC(0-t) ([2]; po, p.o. @ 10 mg/kg) was 2.27 µM·h, the Cmax ([2]; po, p.o. @ 10 mg/kg) was 0.45 µM and the Tmax ([2]; po, p.o. @ 10 mg/kg) was 2 h. It also gave a bioavailability ([2]; po, p.o. @ 10 mg/kg) of 69.3%, a half-life ([2]; po, p.o. @ 10 mg/kg) greater than 8 h and an inhibition at 5 µM (SREBP2) of 82%.

In the case of `O=S(=O)(Nc1ccc(-c2csc(-c3ccnc(CCC(F)(F)F)c3)n2)c(Cl)c1)C(F)(F)F` [Compound 64, N-(3-chloro-4-{2-[2-(3,3,3-trifluoropropyl)pyridin-4-yl]-1,3-thiazol-4-yl}phenyl)-1,1,1-trifluoromethanesulfonamide], the cytotoxicity at 3 days, 20 μM [1] was 100%, the AUC(0-t) ([2]; iv, i.v. @ 2 mg/kg) was 38.5 µM·h and the Cmax ([2]; iv, i.v. @ 2 mg/kg) was 7.13 µM. For the same molecule, the Vd ([2]; iv, i.v. @ 2 mg/kg) was 1.95 L/kg, the clearance ([2]; iv, i.v. @ 2 mg/kg) was 0.917 mL/min/kg and the AUC(0-t) ([2]; po, p.o. @ 10 mg/kg) was 526 µM·h. For the same molecule, the Cmax ([2]; po, p.o. @ 10 mg/kg) was 32.1 µM, the Tmax ([2]; po, p.o. @ 10 mg/kg) was 24 h and the bioavailability ([2]; po, p.o. @ 10 mg/kg) was 273%. For the same molecule, the half-life ([2]; po, p.o. @ 10 mg/kg) was greater than 8 h and the inhibition at 20 µM (SREBP2) was 97%.

Work on `O=S(=O)(Nc1ccc(-c2csc(-c3cccc4ccccc34)n2)c(Cl)c1)C(F)(F)F` [Compound 71, N-{3-chloro-4-[2-(naphthalen-1-yl)-1,3-thiazol-4-yl]phenyl}-1,1,1-trifluoromethanesulfonamide] yielded a cytotoxicity at 3 days, 5 μM [1] of 97%, an AUC(0-t) ([2]; iv, i.v. @ 2 mg/kg) of 13.6 µM·h and a Cmax ([2]; iv, i.v. @ 2 mg/kg) of 3.57 µM. It also gave a Vd ([2]; iv, i.v. @ 2 mg/kg) of 1.27 L/kg, a clearance ([2]; iv, i.v. @ 2 mg/kg) of 4.18 mL/min/kg and a half-life ([2]; iv, i.v. @ 2 mg/kg) of 3.5 h. It also gave an AUC(0-t) ([2]; po, p.o. @ 10 mg/kg) of 51.5 µM·h, a Cmax ([2]; po, p.o. @ 10 mg/kg) of 7.57 µM and a Tmax ([2]; po, p.o. @ 10 mg/kg) of 4 h. The bioavailability ([2]; po, p.o. @ 10 mg/kg) was 75.9%, the half-life ([2]; po, p.o. @ 10 mg/kg) was greater than 8 h and the inhibition at 5 µM (SREBP2) was 77%.
